For assay [1], the target named is T1, AR-VP16 (Homo sapiens, UniProt P10275).
T1 sequence (P10275 560-920 limits assumed): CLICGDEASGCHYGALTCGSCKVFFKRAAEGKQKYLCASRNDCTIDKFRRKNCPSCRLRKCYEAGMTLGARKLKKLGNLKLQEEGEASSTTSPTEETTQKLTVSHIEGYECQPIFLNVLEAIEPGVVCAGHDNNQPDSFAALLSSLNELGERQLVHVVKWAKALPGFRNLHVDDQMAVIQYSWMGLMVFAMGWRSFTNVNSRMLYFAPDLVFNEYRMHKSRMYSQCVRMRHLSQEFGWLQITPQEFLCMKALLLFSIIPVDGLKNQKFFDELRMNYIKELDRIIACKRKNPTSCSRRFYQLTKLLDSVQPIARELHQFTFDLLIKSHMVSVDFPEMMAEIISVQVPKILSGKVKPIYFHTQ
Briefly: AR-VP16 DNA Binding Assay, agonist mode (HepG2 cells). In kind it is cell-based. The settings on record: Emax >20x DMSO control = agonist.

Assay [2] deals with T1, AR-VP16. The assay is described as follows: AR-VP16 DNA Binding Assay, antagonist mode (HepG2 cells, 0.1 nM R1881). It is filed as cell-based. A digest of the protocol: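 HepG2 cells transiently transfected with AR-VP16 (Lipofectin), incubated overnight, then treated with compound in RPMI with charcoal-stripped serum. Antagonist mode adds R1881 at 0.1 nM final. Cells lysed after 48 h incubation for read-out.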

The term IC50 denotes the midpoint of a concentration-inhibition curve. Consider `N#Cc1ncc(N2C(=O)C3(CCC3)N(c3ccc(F)c(OCCc4ccccc4)c3)C2=S)cc1C(F)(F)F` [Compound 162, 5-(5-(4-Fluoro-3-phenethoxyphenyl)-8-oxo-6-thioxo-5,7-diazaspiro[3.4]octan-7-yl)-3-(trifluoromethyl)picolinonitrile], for which the “ARVP16 DNA Binding Assay (Agonist mode): Agonist?” value (shortened to “ARVP16 DNA Binding Assay”) on AR-VP16 [1] is “No (Agonist defined as a compound whose Emax in the ARVP16 DNA Binding Assay (Agonist mode) is >20x DMSO control)”. In addition, the 50% inhibitory concentration (IC50) on AR-VP16 [2] was above 1 µM.
In the same order, the values of `N#Cc1ncc(N2C(=O)C3(CCC3)N(c3ccc(F)c(OCCCc4ccccc4)c3)C2=S)cc1C(F)(F)F` [Compound 163, 5-(5-(4-Fluoro-3-(3-phenylpropoxy)phenyl)-8-oxo-6-thioxo-5,7-diazaspiro[3.4]octan-7-yl)-3-(trifluoromethyl)picolinonitrile] are “No (Agonist defined as a compound whose Emax in the ARVP16 DNA Binding Assay (Agonist mode) is >20x DMSO control)” and above 1 µM.
In the same order, the values of `N#Cc1ncc(N2C(=O)C3(CCC3)N(c3ccc(F)c(OCCN4CCOCC4)c3)C2=S)cc1C(F)(F)F` [Compound 164, 5-(5-(4-Fluoro-3-(2-morpholinoethoxy)phenyl)-8-oxo-6-thioxo-5,7-diazaspiro[3.4]octan-7-yl)-3-(trifluoromethyl)picolinonitrile] are “No (Agonist defined as a compound whose Emax in the ARVP16 DNA Binding Assay (Agonist mode) is >20x DMSO control)” and above 1 µM.
In the same order, the values of `N#Cc1ncc(N2C(=O)C3(CCC3)N(c3ccc(F)c(OCCCN4CCOCC4)c3)C2=S)cc1C(F)(F)F` [Compound 165, 5-(5-(4-Fluoro-3-(3-morpholinopropoxy)phenyl)-8-oxo-6-thioxo-5,7-diazaspiro[3.4]octan-7-yl)-3-(trifluoromethyl)picolinonitrile] are “No (Agonist defined as a compound whose Emax in the ARVP16 DNA Binding Assay (Agonist mode) is >20x DMSO control)” and above 1 µM.
In the case of `CN1CCN(CCOc2cc(N3C(=S)N(c4cnc(C#N)c(C(F)(F)F)c4)C(=O)C34CCC4)ccc2F)CC1` [Compound 166, 5-(5-(4-Fluoro-3-(2-(4-methylpiperazin-1-yl)ethoxy)phenyl)-8-oxo-6-thioxo-5,7-diazaspiro[3.4]octan-7-yl)-3-(trifluoromethyl)picolinonitrile], the “ARVP16 DNA Binding Assay” value at AR-VP16 [1] was “No (Agonist defined as a compound whose Emax in the ARVP16 DNA Binding Assay (Agonist mode) is >20x DMSO control)”. For the same compound, the 50% inhibitory concentration (IC50) at AR-VP16 [2] is above 1 µM.
Taken in the same sequence, the figures for `CN1CCN(CCCOc2cc(N3C(=S)N(c4cnc(C#N)c(C(F)(F)F)c4)C(=O)C34CCC4)ccc2F)CC1` [Compound 167, 5-(5-(4-Fluoro-3-(3-(4-methylpiperazin-1-yl)propoxy)phenyl)-8-oxo-6-thioxo-5,7-diazaspiro[3.4]octan-7-yl)-3-(trifluoromethyl)picolinonitrile] were “No (Agonist defined as a compound whose Emax in the ARVP16 DNA Binding Assay (Agonist mode) is >20x DMSO control)” and above 1 µM.
Taken in the same sequence, the figures for `COCCOc1ccc(N2C(=S)N(c3cnc(C#N)c(C)c3)C(=O)C23CCC3)cc1F` [Compound 168, 5-(5-(3-Fluoro-4-(2-methoxyethoxy)phenyl)-8-oxo-6-thioxo-5,7-diazaspiro[3.4]octan-7-yl)-3-methylpicolinonitrile] were “No (Agonist defined as a compound whose Emax in the ARVP16 DNA Binding Assay (Agonist mode) is >20x DMSO control)” and below 1 µM.
On to `Cc1cc(N2C(=O)C3(CCC3)N(c3ccc(OCCc4ccccn4)c(F)c3)C2=S)cnc1C#N` [Compound 169, 5-(5-(3-Fluoro-4-(2-(pyridin-2-yl)ethoxy)phenyl)-8-oxo-6-thioxo-5,7-diazaspiro[3.4]octan-7-yl)-3-methylpicolinonitrile], for which the “ARVP16 DNA Binding Assay” value at AR-VP16 [1] is reported as “No (Agonist defined as a compound whose Emax in the ARVP16 DNA Binding Assay (Agonist mode) is >20x DMSO control)”. Moreover, the IC50 at AR-VP16 [2] was below 1 µM.
For `Cc1cc(N2C(=O)C3(CCC3)N(c3ccc(OCCN4CCN(C)CC4)c(F)c3)C2=S)cnc1C#N` [Compound 170, 5-(5-(3-Fluoro-4-(2-(4-methylpiperazin-1-yl)ethoxy)phenyl)-8-oxo-6-thioxo-5,7-diazaspiro[3.4]octan-7-yl)-3-methylpicolinonitrile], the “ARVP16 DNA Binding Assay” value on AR-VP16 [1] is recorded as “Yes (Agonist defined as a compound whose Emax in the ARVP16 DNA Binding Assay (Agonist mode) is >20x DMSO control)”. Moreover, the IC50 at AR-VP16 [2] was below 1 µM.
In the same order, the values of `N#Cc1ncc(N2C(=O)C3(CCC3)N(c3ccc(OCCN4CCSCC4)c(F)c3)C2=S)cc1C(F)(F)F` [Compound 175, 5-(5-(3-Fluoro-4-(2-thiomorpholinoethoxy)phenyl)-8-oxo-6-thioxo-5,7-diazaspiro[3.4]octan-7-yl)-3-(trifluoromethyl)picolinonitrile] are “No (Agonist defined as a compound whose Emax in the ARVP16 DNA Binding Assay (Agonist mode) is >20x DMSO control)” and below 1 µM.
Taken in the same sequence, the figures for `CN1CCN(CCOc2ccc(N3C(=S)N(c4cnc(C#N)c(C(F)(F)F)c4)C(=O)C34CCC4)cc2)CC1` [Compound 178, 5-(5-(4-(2-(4-Methylpiperazin-1-yl)ethoxy)phenyl)-8-oxo-6-thioxo-5,7-diazaspiro[3.4]octan-7-yl)-3-(trifluoromethyl)picolinonitrile] were “No (Agonist defined as a compound whose Emax in the ARVP16 DNA Binding Assay (Agonist mode) is >20x DMSO control)” and below 1 µM.
In the same order, the values of `N#Cc1ncc(N2C(=O)C3(CCC3)N(c3ccc(OCCC4CCOCC4)c(F)c3)C2=S)cc1C(F)(F)F` [Compound 180, 5-(5-(3-Fluoro-4-(2-(tetrahydro-2H-pyran-4-yl)ethoxy)phenyl)-8-oxo-6-thioxo-5,7-diazaspiro[3.4]octan-7-yl)-3-(trifluoromethyl)picolinonitrile] are “Yes (Agonist defined as a compound whose Emax in the ARVP16 DNA Binding Assay (Agonist mode) is >20x DMSO control)” and below 1 µM.
Take `CN1CCN(CCCOc2ccc(N3C(=S)N(c4cnc(C#N)c(C(F)(F)F)c4)C(=O)C34CCC4)c(F)c2)CC1` [Compound 184, 5-(5-(2-Fluoro-4-(3-(4-methylpiperazin-1-yl)propoxy)phenyl)-8-oxo-6-thioxo-5,7-diazaspiro[3.4]octan-7-yl)-3-(trifluoromethyl)picolinonitrile]: at AR-VP16 [1], the “ARVP16 DNA Binding Assay” value was “Yes (Agonist defined as a compound whose Emax in the ARVP16 DNA Binding Assay (Agonist mode) is >20x DMSO control)”. This compound gave a half-maximal inhibitory concentration (IC50) at AR-VP16 [2] below 1 µM.
Consider `N#Cc1ncc(N2C(=O)C3(CCC3)N(c3ccc(OCCN4CCS(=O)(=O)CC4)c(F)c3)C2=S)cc1C(F)(F)F` [Compound 186, 5-(5-(4-(2-(1,1-Dioxidothiomorpholino)ethoxy)-3-fluorophenyl)-8-oxo-6-thioxo-5,7-diazaspiro[3.4]octan-7-yl)-3-(trifluoromethyl)picolinonitrile], for which the “ARVP16 DNA Binding Assay” value on AR-VP16 [1] is “Yes (Agonist defined as a compound whose Emax in the ARVP16 DNA Binding Assay (Agonist mode) is >20x DMSO control)”. This compound registered a half-inhibitory concentration (IC50) at AR-VP16 [2] below 1 µM.
Taken in the same sequence, the figures for `N#Cc1ncc(N2C(=O)C3(CCC3)N(c3ccc(OCCN4CCCCC4)cc3F)C2=S)cc1C(F)(F)F` [Compound 187, 5-(5-(2-Fluoro-4-(2-(piperidin-1-yl)ethoxy)phenyl)-8-oxo-6-thioxo-5,7-diazaspiro[3.4]octan-7-yl)-3-(trifluoromethyl)picolinonitrile] were “No (Agonist defined as a compound whose Emax in the ARVP16 DNA Binding Assay (Agonist mode) is >20x DMSO control)” and below 1 µM.
Taken in the same sequence, the figures for `N#Cc1ncc(N2C(=O)C3(CCC3)N(c3ccc(OCCc4ccccc4)c(F)c3)C2=S)cc1C(F)(F)F` [Compound 188, 5-(5-(3-Fluoro-4-phenethoxyphenyl)-8-oxo-6-thioxo-5,7-diazaspiro[3.4]octan-7-yl)-3-(trifluoromethyl)picolinonitrile] were “No (Agonist defined as a compound whose Emax in the ARVP16 DNA Binding Assay (Agonist mode) is >20x DMSO control)” and below 1 µM.
In the same order, the values of `N#Cc1ncc(N2C(=O)C3(CCC3)N(c3ccc(OCCc4ncccn4)c(F)c3)C2=S)cc1C(F)(F)F` [Compound 189, 5-(5-(3-Fluoro-4-(2-(pyrimidin-2-yl)ethoxy)phenyl)-8-oxo-6-thioxo-5,7-diazaspiro[3.4]octan-7-yl)-3-(trifluoromethyl)picolinonitrile] are “No (Agonist defined as a compound whose Emax in the ARVP16 DNA Binding Assay (Agonist mode) is >20x DMSO control)” and below 1 µM.
Consider `CN1CCC(Oc2ccc(N3C(=S)N(c4cnc(C#N)c(C(F)(F)F)c4)C(=O)C34CCC4)c(F)c2)CC1` [Compound 190, 5-(5-(2-Fluoro-4-((1-methylpiperidin-4-yl)oxy)phenyl)-8-oxo-6-thioxo-5,7-diazaspiro[3.4]octan-7-yl)-3-(trifluoromethyl)picolinonitrile], for which, on AR-VP16 [1], the “ARVP16 DNA Binding Assay” value was “No (Agonist defined as a compound whose Emax in the ARVP16 DNA Binding Assay (Agonist mode) is >20x DMSO control)”. Further, the IC50 on AR-VP16 [2] was below 1 µM.

For the origin of these results see US9108944B2, “Androgen receptor modulators and uses thereof” (ARAGON PHARMACEUTICALS, INC., priority 2010, dated 2015).
